Reference: publication PMC7156458, “Synthetic biology based construction of biological activity-related library of fungal decalin-containing diterpenoid pyrones” (Nature Communications, 2020)

Molecular target: Aβ42 (Homo sapiens, UniProt P05067)
Experiment: Th-T (thioflavin-T) assay of Aβ42 aggregation
Format: biochemical
Details: for Th-T assay plate reading, mean of three wells (Supplementary Fig. 47): source data, Ab alone and No Ab as controls

Chain of Aβ42 (P05067 672-713): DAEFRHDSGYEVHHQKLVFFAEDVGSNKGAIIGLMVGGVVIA

Structure (SMILES): C=C1CCC2C3(C)CC(C=C(C)C)OC3CCC2(C)C1Cc1c(OC)oc(C)c(C)c1=O (centres unmarked) [Compound 23]
- Th-T fluorescence, mean of three wells (Aβ42 aggregation time course, reading M117): 3.821
- Th-T fluorescence, mean of three wells (Aβ42 aggregation time course, reading M118): 3.829
- Th-T fluorescence, mean of three wells (Aβ42 aggregation time course, reading M119): 3.818
- Th-T fluorescence, mean of three wells (Aβ42 aggregation time course, reading M120): 3.827
- Th-T fluorescence, mean of three wells (Aβ42 aggregation time course, reading M121): 3.807
- Th-T fluorescence, mean of three wells (Aβ42 aggregation time course, reading M122): 3.851
- Th-T fluorescence, mean of three wells (Aβ42 aggregation time course, reading M123): 3.84
- Th-T fluorescence, mean of three wells (Aβ42 aggregation time course, reading M124): 3.827
- Th-T fluorescence, mean of three wells (Aβ42 aggregation time course, reading M125): 3.803
- Th-T fluorescence, mean of three wells (Aβ42 aggregation time course, reading M126): 3.803
- Th-T fluorescence, mean of three wells (Aβ42 aggregation time course, reading M127): 3.811
- Th-T fluorescence, mean of three wells (Aβ42 aggregation time course, reading M128): 3.832
- Th-T fluorescence, mean of three wells (Aβ42 aggregation time course, reading M129): 3.806
- Th-T fluorescence, mean of three wells (Aβ42 aggregation time course, reading M130): 3.7777
- Th-T fluorescence, mean of three wells (Aβ42 aggregation time course, reading M131): 3.7932
- Th-T fluorescence, mean of three wells (Aβ42 aggregation time course, reading M132): 3.801
- Th-T fluorescence, mean of three wells (Aβ42 aggregation time course, reading M133): 3.762
- Th-T fluorescence, mean of three wells (Aβ42 aggregation time course, reading M134): 3.777
- Th-T fluorescence, mean of three wells (Aβ42 aggregation time course, reading M135): 3.785
- Th-T fluorescence, mean of three wells (Aβ42 aggregation time course, reading M136): 3.777
- Th-T fluorescence, mean of three wells (Supplementary Fig. 47, reading M137): 3.7533
- Th-T fluorescence, mean of three wells (Supplementary Fig. 47, reading M138): 3.768
- Th-T fluorescence, mean of three wells (Supplementary Fig. 47, reading M139): 3.732
- Th-T fluorescence, mean of three wells (Supplementary Fig. 47, reading M140): 3.756
- Th-T fluorescence, mean of three wells (Supplementary Fig. 47, reading M141): 3.727
- Th-T fluorescence, mean of three wells (Supplementary Fig. 47, reading M142): 3.722
- Th-T fluorescence, mean of three wells (Supplementary Fig. 47, reading M143): 3.7233
- Th-T fluorescence, mean of three wells (Supplementary Fig. 47, reading M144): 3.718
- Th-T fluorescence, mean of three wells (Supplementary Fig. 47, reading M145): 3.718
- Th-T fluorescence, mean of three wells (Supplementary Fig. 47 source data, measurement M37 of time course): 3.91
- Th-T fluorescence, mean of three wells (Supplementary Fig. 47 source data, measurement M38 of time course): 3.88
- Th-T fluorescence, mean of three wells (Supplementary Fig. 47 source data, measurement M39 of time course): 3.926
- Th-T fluorescence, mean of three wells (Supplementary Fig. 47 source data, measurement M40 of time course): 3.945
- Th-T fluorescence, mean of three wells (Supplementary Fig. 47 source data, measurement M41 of time course): 3.951
- Th-T fluorescence, mean of three wells (Supplementary Fig. 47 source data, measurement M42 of time course): 3.943
- Th-T fluorescence, mean of three wells (Supplementary Fig. 47 source data, measurement M43 of time course): 3.96
- Th-T fluorescence, mean of three wells (Supplementary Fig. 47 source data, measurement M44 of time course): 3.975
- Th-T fluorescence, mean of three wells (Supplementary Fig. 47 source data, measurement M45 of time course): 3.993
- Th-T fluorescence, mean of three wells (Supplementary Fig. 47 source data, measurement M46 of time course): 3.9875
- Th-T fluorescence, mean of three wells (Supplementary Fig. 47 source data, measurement M47 of time course): 4.0057
- Th-T fluorescence, mean of three wells (Supplementary Fig. 47 source data, measurement M48 of time course): 4.03
- Th-T fluorescence, mean of three wells (Supplementary Fig. 47 source data, measurement M49 of time course): 4.026
- Th-T fluorescence, mean of three wells (Supplementary Fig. 47 source data, measurement M50 of time course): 3.972
- Th-T fluorescence, mean of three wells (Supplementary Fig. 47 source data, measurement M51 of time course): 4.006
- Th-T fluorescence, mean of three wells (Supplementary Fig. 47 source data, measurement M52 of time course): 4
- Th-T fluorescence, mean of three wells (Supplementary Fig. 47 source data, measurement M53 of time course): 3.995
- Th-T fluorescence, mean of three wells (Supplementary Fig. 47 source data, measurement M54 of time course): 4.005
- Th-T fluorescence, mean of three wells (Supplementary Fig. 47 source data, measurement M55 of time course): 4.01
- Th-T fluorescence, mean of three wells (Supplementary Fig. 47 source data, measurement M56 of time course): 4.026
- Th-T assay plate reading, mean of three wells (Supplementary Fig. 47) (measurement M1): 0.1917
- Th-T assay plate reading, mean of three wells (Supplementary Fig. 47) (measurement M2): 0.1872
- Th-T assay plate reading, mean of three wells (Supplementary Fig. 47) (measurement M3): 0.2017
- Th-T assay plate reading, mean of three wells (Supplementary Fig. 47) (measurement M4): 0.2278
- Th-T assay plate reading, mean of three wells (Supplementary Fig. 47) (measurement M5): 0.2368
- Th-T assay plate reading, mean of three wells (Supplementary Fig. 47) (measurement M6): 0.2919
- Th-T assay plate reading, mean of three wells (Supplementary Fig. 47) (measurement M7): 0.3712
- Th-T assay plate reading, mean of three wells (Supplementary Fig. 47) (measurement M8): 0.4061
- Th-T assay plate reading, mean of three wells (Supplementary Fig. 47) (measurement M9): 0.4563
- Th-T assay plate reading, mean of three wells (Supplementary Fig. 47) (measurement M10): 0.5903
- Th-T assay plate reading, mean of three wells (Supplementary Fig. 47) (measurement M11): 0.9948
- Th-T assay plate reading, mean of three wells (Supplementary Fig. 47) (measurement M12): 1.768
- Th-T assay plate reading, mean of three wells (Supplementary Fig. 47) (measurement M13): 2.41
- Th-T assay plate reading, mean of three wells (Supplementary Fig. 47) (measurement M14): 2.789
- Th-T assay plate reading, mean of three wells (Supplementary Fig. 47) (measurement M15): 2.988
- Th-T assay plate reading, mean of three wells (Supplementary Fig. 47) (measurement M16): 3.116
- Th-T fluorescence, mean of three wells (reading M17, Supplementary Fig. 47 source data): 3.2228
- Th-T fluorescence, mean of three wells (reading M18, Supplementary Fig. 47 source data): 3.274
- Th-T fluorescence, mean of three wells (reading M19, Supplementary Fig. 47 source data): 3.356
- Th-T fluorescence, mean of three wells (reading M20, Supplementary Fig. 47 source data): 3.42
- Th-T fluorescence, mean of three wells (reading M21, Supplementary Fig. 47 source data): 3.466
- Th-T fluorescence, mean of three wells (reading M22, Supplementary Fig. 47 source data): 3.5211
- Th-T fluorescence, mean of three wells (reading M23, Supplementary Fig. 47 source data): 3.558
- Th-T fluorescence, mean of three wells (reading M24, Supplementary Fig. 47 source data): 3.581
- Th-T fluorescence, mean of three wells (reading M25, Supplementary Fig. 47 source data): 3.61
- Th-T fluorescence, mean of three wells (reading M26, Supplementary Fig. 47 source data): 3.64
- Th-T fluorescence, mean of three wells (reading M27, Supplementary Fig. 47 source data): 3.697
- Th-T fluorescence, mean of three wells (reading M28, Supplementary Fig. 47 source data): 3.7304
- Th-T fluorescence, mean of three wells (reading M29, Supplementary Fig. 47 source data): 3.755
- Th-T fluorescence, mean of three wells (reading M30, Supplementary Fig. 47 source data): 3.765
- Th-T fluorescence, mean of three wells (reading M31, Supplementary Fig. 47 source data): 3.799
- Th-T fluorescence, mean of three wells (reading M32, Supplementary Fig. 47 source data): 3.833
- Th-T fluorescence, mean of three wells (reading M33, Supplementary Fig. 47 source data): 3.798
- Th-T fluorescence, mean of three wells (reading M34, Supplementary Fig. 47 source data): 3.8608
- Th-T fluorescence, mean of three wells (reading M35, Supplementary Fig. 47 source data): 3.851
- Th-T fluorescence, mean of three wells (reading M36, Supplementary Fig. 47 source data): 3.863
- Th-T fluorescence, mean of three wells (time course, reading M57): 4.004
- Th-T fluorescence, mean of three wells (time course, reading M58): 4.031
- Th-T fluorescence, mean of three wells (time course, reading M59): 4.01
- Th-T fluorescence, mean of three wells (time course, reading M60): 3.981
- Th-T fluorescence, mean of three wells (time course, reading M61): 4.001
- Th-T fluorescence, mean of three wells (time course, reading M62): 4.022
- Th-T fluorescence, mean of three wells (time course, reading M63): 4.022
- Th-T fluorescence, mean of three wells (time course, reading M64): 3.993
- Th-T fluorescence, mean of three wells (time course, reading M65): 3.998
- Th-T fluorescence, mean of three wells (time course, reading M66): 4.007
- Th-T fluorescence, mean of three wells (time course, reading M67): 3.974
- Th-T fluorescence, mean of three wells (time-course reading M97, Supplementary Fig. 47 source data): 3.915
- Th-T fluorescence, mean of three wells (time-course reading M98, Supplementary Fig. 47 source data): 3.9
- Th-T fluorescence, mean of three wells (time-course reading M99, Supplementary Fig. 47 source data): 3.901
- Th-T fluorescence, mean of three wells (time-course reading M100, Supplementary Fig. 47 source data): 3.914
- Th-T fluorescence, mean of three wells (time-course reading M101, Supplementary Fig. 47 source data): 3.9074
- Th-T fluorescence, mean of three wells (time-course reading M102, Supplementary Fig. 47 source data): 3.878
- Th-T fluorescence, mean of three wells (time-course reading M103, Supplementary Fig. 47 source data): 3.8886
- Th-T fluorescence, mean of three wells (time-course reading M104, Supplementary Fig. 47 source data): 3.914
- Th-T fluorescence, mean of three wells (time-course reading M105, Supplementary Fig. 47 source data): 3.865
- Th-T fluorescence, mean of three wells (time-course reading M106, Supplementary Fig. 47 source data): 3.9
- Th-T fluorescence, mean of three wells (time-course reading M107, Supplementary Fig. 47 source data): 3.909
- Th-T fluorescence, mean of three wells (time-course reading M108, Supplementary Fig. 47 source data): 3.872
- Th-T fluorescence, mean of three wells (time-course reading M109, Supplementary Fig. 47 source data): 3.882
- Th-T fluorescence, mean of three wells (time-course reading M110, Supplementary Fig. 47 source data): 3.8573
- Th-T fluorescence, mean of three wells (time-course reading M111, Supplementary Fig. 47 source data): 3.873
- Th-T fluorescence, mean of three wells (time-course reading M112, Supplementary Fig. 47 source data): 3.8761
- Th-T fluorescence, mean of three wells (time-course reading M113, Supplementary Fig. 47 source data): 3.855
- Th-T fluorescence, mean of three wells (time-course reading M114, Supplementary Fig. 47 source data): 3.858
- Th-T fluorescence, mean of three wells (time-course reading M115, Supplementary Fig. 47 source data): 3.833
- Th-T fluorescence, mean of three wells (time-course reading M116, Supplementary Fig. 47 source data): 3.836
